In patent publication US12054498B2, “Heteroaromatic macrocyclic ether chemotherapeutic agents” (Nuvalent, Inc., priority 2020, dated 2024):

Key:
Ba/F3 cells TPM3-TRKA = biological target: T1, Ba/F3 cells TPM3-TRKA (Homo sapiens, UniProt P04629); experiment: Ba/F3 cell proliferation assay, TPM3-TRKA; format: cell-based; details: 72 hours, CellTiter-Glo, read-out: TPM3-NTRK1-wt IC50
T1 construct: host or cells: Ba/F3 (RIKEN), retroviral pMSCV-puro; the other entry of the earlier key: TPM3 (P06753, Tropomyosin alpha-3 chain)
T1 sequence (P04629 510-796 limits assumed): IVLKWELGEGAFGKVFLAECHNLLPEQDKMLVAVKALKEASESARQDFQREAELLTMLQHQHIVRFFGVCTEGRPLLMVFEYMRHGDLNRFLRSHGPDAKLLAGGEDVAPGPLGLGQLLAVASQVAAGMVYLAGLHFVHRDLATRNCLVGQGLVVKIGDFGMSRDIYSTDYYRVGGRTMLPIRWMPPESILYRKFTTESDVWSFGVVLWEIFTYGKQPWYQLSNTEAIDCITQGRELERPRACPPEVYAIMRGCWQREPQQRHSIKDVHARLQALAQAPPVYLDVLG
In short: (§1)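 IL-3-independent Ba/F3 monoclones, puromycin-selected, transduced with fusion genes; 1,000 cells/well, 1 day rest, 3-fold compound series, 72 h. Read: CellTiter-Glo luminescence. IC50 from % inhibition vs concentration, 4-parameter logistic.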

[1] = biological target: T2, Ba/F3 cells EML4-ALK wt (variant 1) (Homo sapiens, UniProt Q9UM73); experiment: Ba/F3 cell proliferation assay, EML4-ALK wt (variant 1); format: cell-based; details: 72 hours, CellTiter-Glo
T2 construct: echinoderm microtubule-associated protein-like 4 (EML4) gene and the ALK tyrosine kinase domain; host or cells: Ba/F3 (RIKEN), retroviral pMSCV-puro; the other entry of the earlier key: EML4 (Q9HC35, Echinoderm microtubule-associated protein-like 4)
T2 sequence (Q9UM73 with tags, fused parts or gaps): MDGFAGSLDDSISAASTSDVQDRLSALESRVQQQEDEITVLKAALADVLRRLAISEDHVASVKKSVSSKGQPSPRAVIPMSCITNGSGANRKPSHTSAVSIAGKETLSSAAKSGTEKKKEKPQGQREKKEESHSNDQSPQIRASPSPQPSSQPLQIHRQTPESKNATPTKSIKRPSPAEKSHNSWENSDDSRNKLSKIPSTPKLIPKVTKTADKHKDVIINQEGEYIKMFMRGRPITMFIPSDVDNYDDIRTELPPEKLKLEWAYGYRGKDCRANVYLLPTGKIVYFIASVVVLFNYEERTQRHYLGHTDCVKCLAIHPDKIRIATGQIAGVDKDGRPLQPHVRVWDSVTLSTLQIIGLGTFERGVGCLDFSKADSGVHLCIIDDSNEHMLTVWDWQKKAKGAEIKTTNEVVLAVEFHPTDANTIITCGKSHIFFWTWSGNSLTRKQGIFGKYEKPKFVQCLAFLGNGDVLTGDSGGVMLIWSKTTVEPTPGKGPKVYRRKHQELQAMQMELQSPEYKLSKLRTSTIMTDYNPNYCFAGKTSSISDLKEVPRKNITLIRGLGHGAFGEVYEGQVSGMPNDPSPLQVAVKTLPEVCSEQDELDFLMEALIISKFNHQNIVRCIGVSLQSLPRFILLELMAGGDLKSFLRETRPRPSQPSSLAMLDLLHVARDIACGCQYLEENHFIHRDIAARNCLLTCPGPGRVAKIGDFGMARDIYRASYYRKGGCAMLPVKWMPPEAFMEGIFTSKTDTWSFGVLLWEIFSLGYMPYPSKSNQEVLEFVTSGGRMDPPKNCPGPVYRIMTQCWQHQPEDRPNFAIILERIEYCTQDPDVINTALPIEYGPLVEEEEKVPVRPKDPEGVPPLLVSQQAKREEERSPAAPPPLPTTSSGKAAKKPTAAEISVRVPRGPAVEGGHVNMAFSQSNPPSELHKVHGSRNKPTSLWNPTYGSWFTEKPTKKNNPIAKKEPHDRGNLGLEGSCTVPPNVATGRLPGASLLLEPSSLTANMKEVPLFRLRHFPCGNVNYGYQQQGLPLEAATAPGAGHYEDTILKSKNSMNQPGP
In short: as §1

[2] = biological target: T3, Ba/F3 cells CD74-ROS1 G2032R (Homo sapiens, UniProt P08922, G2032R); experiment: Ba/F3 cell proliferation assay, CD74-ROS1 G2032R; format: cell-based; details: 72 hours, CellTiter-Glo
T3 construct: fusion of the C-terminus of ROS1 with the N-terminus of various partner proteins; host or cells: Ba/F3 (RIKEN), retroviral pMSCV-puro; the other entry of the earlier key: CD74 (P04233, HLA class II histocompatibility antigen gamma chain)
T3 sequence (P08922 1883-2347 G2032R limits assumed): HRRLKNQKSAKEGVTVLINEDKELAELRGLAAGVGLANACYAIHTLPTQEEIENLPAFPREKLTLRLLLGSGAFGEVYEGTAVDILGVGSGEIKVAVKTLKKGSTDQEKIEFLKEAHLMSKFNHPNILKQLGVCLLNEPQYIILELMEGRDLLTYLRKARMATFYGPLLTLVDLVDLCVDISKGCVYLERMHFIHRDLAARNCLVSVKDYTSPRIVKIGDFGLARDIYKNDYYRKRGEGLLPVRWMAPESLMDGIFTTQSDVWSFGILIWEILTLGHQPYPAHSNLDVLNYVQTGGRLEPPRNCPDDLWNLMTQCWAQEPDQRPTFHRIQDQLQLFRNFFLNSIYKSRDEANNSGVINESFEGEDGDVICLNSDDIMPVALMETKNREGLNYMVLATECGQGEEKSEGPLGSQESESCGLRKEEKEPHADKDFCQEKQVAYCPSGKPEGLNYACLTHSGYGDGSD
In short: (§2)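 IL-3-independent Ba/F3 CD74-ROS1 lines, puromycin-selected monoclones; 1,000 cells/well, plated 1 d before dosing; 3-fold serial dilutions, 72 h; CellTiter-Glo luminescence; IC50 by 4-parameter logistic regression.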

[3] = biological target: T4, Ba/F3 cells EML4-ALK L1196M/G1202R (variant 1) (Homo sapiens, UniProt Q9UM73, G1202R/L1196M); experiment: Ba/F3 cell proliferation assay, EML4-ALK L1196M/G1202R (variant 1); format: cell-based; details: 72 hours, CellTiter-Glo
T4 construct: echinoderm microtubule-associated protein-like 4 (EML4) gene and the ALK tyrosine kinase domain; host or cells: Ba/F3 (RIKEN), retroviral pMSCV-puro; the other entry of the earlier key: EML4 (Q9HC35, Echinoderm microtubule-associated protein-like 4)
T4 sequence (Q9UM73 with tags, fused parts or gaps L1196M/G1202R): as the sequence (Q9UM73 with tags, fused parts or gaps) above, with L635M, G641R counted along it
In short: as §1

ALK-wt = biological target: T5, ALK-wt (Homo sapiens, UniProt Q9UM73); experiment: Biochemical kinase assay, ALK-wt kinase domain; details: apparent inhibitory constant, Morrison equation; ATP 2 mM in substrate solution; read-out: ALK-wt Ki^app
T5 construct: purchased Carna 08-518
T5 sequence (Q9UM73 1116-1392 limits assumed): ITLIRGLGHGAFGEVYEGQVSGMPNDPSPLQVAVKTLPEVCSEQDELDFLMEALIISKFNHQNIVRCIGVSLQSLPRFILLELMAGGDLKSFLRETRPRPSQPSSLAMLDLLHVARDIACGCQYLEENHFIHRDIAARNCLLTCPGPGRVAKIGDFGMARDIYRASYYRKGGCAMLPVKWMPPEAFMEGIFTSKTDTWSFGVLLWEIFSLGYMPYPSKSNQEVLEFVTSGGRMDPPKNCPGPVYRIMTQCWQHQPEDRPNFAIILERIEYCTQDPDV
In short: (§3)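 Compound in DMSO added first, then substrate solution (ATP 2 mM; AQT0101 or AQT0104, 26 μM; pH 7.5 HEPES, 10 mM MgCl2), then kinase solution with enzyme at 0.5–3 nM depending on construct. Kinetic read every 2 min for 120 min at 30° C; Ki^app by Morrison regression.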

ROS1-G2032R = biological target: T6, ROS1-G2032R (Homo sapiens, UniProt P08922, G2032R); experiment: Biochemical kinase assay, ROS1-G2032R kinase domain; details: apparent inhibitory constant, Morrison equation; ATP 2 mM in substrate solution; read-out: ROS1-G2032R Ki^app
T6 construct: purchased SignalChem R14-12BG
T6 sequence (P08922 1945-2222 G2032R limits assumed): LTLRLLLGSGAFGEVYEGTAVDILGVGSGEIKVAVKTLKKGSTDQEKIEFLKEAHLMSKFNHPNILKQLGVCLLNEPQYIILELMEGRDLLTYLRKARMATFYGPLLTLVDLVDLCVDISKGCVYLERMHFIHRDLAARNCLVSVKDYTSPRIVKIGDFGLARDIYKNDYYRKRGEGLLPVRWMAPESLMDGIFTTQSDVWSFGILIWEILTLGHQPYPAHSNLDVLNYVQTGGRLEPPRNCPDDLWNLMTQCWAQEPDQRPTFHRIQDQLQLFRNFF
In short: (§4)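 Kinetic read: 485 nm, 2-min intervals, 120 min, 30 °C. Substrate mix — ATP 2 mM, AQT0101 26 μM, HEPES 50 mM pH 7.5, MgCl2 10 mM. Output: Ki^app, Morrison equation.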

[4] = tested on: TPM3-NTRK1-wt IC50 / primary target IC50 (e.g. CD74-ROS1-wt); experiment: TRKA selectivity in Ba/F3 cells (TRKA potency divided by primary target potency); format: cell-based; details: for TPM3-NTRK1-wt/CD74-ROS1-G2032R selectivity ratio: TRKA potency / CD74-ROS1-G2032R potency; for TPM3-NTRK1-wt/CD74-ROS1-wt selectivity ratio: TRKA potency / CD74-ROS1-wt potency; for TPM3-NTRK1-wt/EML4-ALK-L1196M-G1202R selectivity ratio: TRKA potency / EML4-ALK-L1196M-G1202R potency; for TPM3-NTRK1-wt/EML4-ALK-wt selectivity ratio: TRKA potency / EML4-ALK-wt potency
Procedure: TRKA selectivity was calculated by dividing a compound's TRKA potency by its primary target potency (e.g. TPM3-NTRK1-wt IC50/CD74-ROS1-wt IC50). Compound selectivity can be interpreted by binning ratio values: bin A for very high selectivity, ratio >30-fold; bin B for high selectivity, ratio >10-fold; bin C for moderate selectivity, ratio ≥1; and bin D for low selectivity, ratio <1. […] (nd=not determined).

ROS1-wt = biological target: T7, ROS1-wt (Homo sapiens, UniProt P08922); experiment: Biochemical kinase assay, ROS1-wt kinase domain; details: apparent inhibitory constant, Morrison equation; ATP 2 mM in substrate solution; read-out: ROS1-wt Ki^app
T7 construct: purchased Carna 08-163
T7 sequence (P08922 1945-2222 limits assumed): as the sequence (P08922 1945-2222 G2032R limits assumed) above, with R88G counted along it
In short: as §4

ALK L1196M/G1202R = biological target: T8, ALK L1196M/G1202R (Homo sapiens, UniProt Q9UM73, G1202R/L1196M); experiment: Biochemical kinase assay, ALK L1196M/G1202R kinase domain; details: apparent inhibitory constant, Morrison equation; ATP 2 mM in substrate solution; read-out: ALK-L1196M-G1202R Ki^app
T8 construct: purchased SignalChem A19-12NG
T8 sequence (Q9UM73 1116-1392 L1196M/G1202R limits assumed): as the sequence (Q9UM73 1116-1392 limits assumed) above, with L81M, G87R counted along it
In short: as §3

TRKA-wt = biological target: T9, TRKA-wt (Homo sapiens, UniProt P04629); experiment: Biochemical kinase assay, TRKA-wt kinase domain; details: apparent inhibitory constant, Morrison equation; ATP 2 mM in substrate solution; read-out: TRKA-wt Ki^app
T9 construct: or TRKA-wt (1 nM, BPS Bio, 40280) kinase domains in buffer; purchased BPS Bio 40280
T9 sequence (P04629 510-781 limits assumed): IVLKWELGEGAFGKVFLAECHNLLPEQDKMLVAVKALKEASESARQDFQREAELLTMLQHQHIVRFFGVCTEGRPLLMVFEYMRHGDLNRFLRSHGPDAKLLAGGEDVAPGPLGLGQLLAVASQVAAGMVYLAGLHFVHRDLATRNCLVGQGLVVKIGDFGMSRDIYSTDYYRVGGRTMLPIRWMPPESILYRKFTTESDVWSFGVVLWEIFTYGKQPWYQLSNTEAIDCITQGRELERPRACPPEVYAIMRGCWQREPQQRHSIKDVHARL
In short: as §3

[5] = biological target: T10, Ba/F3 cells CD74-ROS1 wild-type (wt) (Homo sapiens, UniProt P08922); experiment: Ba/F3 cell proliferation assay, CD74-ROS1 wild-type; format: cell-based; details: 72 hours, CellTiter-Glo
T10 construct: fusion of the C-terminus of ROS1 with the N-terminus of various partner proteins; host or cells: Ba/F3 (RIKEN), retroviral pMSCV-puro; the other entry of the earlier key: CD74 (P04233, HLA class II histocompatibility antigen gamma chain)
T10 sequence (P08922 1883-2347 limits assumed): as the sequence (P08922 1883-2347 G2032R limits assumed) above, with R150G counted along it
In short: as §2

Compound | IC50 (Ba/F3 cells TPM3-TRKA) [nM] | IC50 [1] [nM] | IC50 [2] [nM] | IC50 [3] [nM] | Ki (ALK-wt) [nM] | Ki (ROS1-G2032R) [nM] | Ki (ROS1-wt) [nM] | Ki (ALK L1196M/G1202R) [nM] | Ki (TRKA-wt) [nM] | IC50 [5] [nM] | TPM3-NTRK1-wt/CD74-ROS1-G2032R selectivity ratio [4] | TPM3-NTRK1-wt/CD74-ROS1-wt selectivity ratio [4] | TPM3-NTRK1-wt/EML4-ALK-L1196M-G1202R selectivity ratio [4] | TPM3-NTRK1-wt/EML4-ALK-wt selectivity ratio [4]
CCc1noc2c1-c1cnc(N)c(c1)O[C@H](C)c1cc(F)ccc1-c1cn(C)nc1C2 [Example 23, (19R)-3ethyl-16-fluoro-10,19-dimethyl-5,20-dioxa-4,9,10,23-tetraazapentacyclo[19.3.1.0^2,^6.0^8,^12.0^13,^18]pentacosa-1(24),2(6),3,8,11,13,15,17,21(25),22-decaen-22-amine] | 50 to 500 | 0.1 to 50 | 0.1 to 50 | 50 to 500 | < 50 | < 50 | < 50 | < 50 | 50 to 500 | 0.1 to 50 | A (bin A for very high selectivity, ratio >30-fold) | A (bin A for very high selectivity, ratio >30-fold) | C (bin C for moderate selectivity, ratio ≥1) | B (bin B for high selectivity, ratio >10-fold)
C[C@H]1Oc2cc(cnc2N)-c2c(cnn2CC(F)F)Cc2nn(C)nc2-c2ccc(F)cc21 [Example 24, (19R)-3-(2,2-difluoroethyl)-16-fluoro-10,19-dimethyl-20oxa3,4,9,10,11,23-hexaazapentacyclo[19.3.1.0^2,^6.0^8,^12.0^13,^18]pentacosa-1(24),2(6),4,8,11,13,15,17,21 (25),22-decaen-22-amine] | > 500 | 0.1 to 50 | 0.1 to 50 | 50 to 500 | < 50 | < 50 | < 50 | < 50 | > 500 | 0.1 to 50 | A (bin A for very high selectivity, ratio >30-fold) | A (bin A for very high selectivity, ratio >30-fold) | B (bin B for high selectivity, ratio >10-fold) | A (bin A for very high selectivity, ratio >30-fold)
C[C@H]1Oc2cc(cnc2N)-c2c(C#N)noc2Cc2nn(C)nc2-c2ccc(F)cc21 [Example 25, (19R)-22-amino-16-fluoro-10,19-dimethyl-5,20-dioxa-4,9,10,11,23-pentaazapentacyclo[19.3,1.0^2,^6.0^8,^12.0^13,^18]pentacosa-1(24),2(6),3,8,11,13,15,17,21(25),22-decaene-3-carbonitrile] | > 500 | 50 to 500 | 0.1 to 50 | > 500 | < 50 | 50 to 500 | < 50 | 50 to 500 | > 500 | 0.1 to 50 | A (bin A for very high selectivity, ratio >30-fold) | A (bin A for very high selectivity, ratio >30-fold) | C (bin C for moderate selectivity, ratio ≥1) | A (bin A for very high selectivity, ratio >30-fold)
C[C@H]1Oc2cc(cnc2N)-c2c(C3CCC3)noc2Cc2nn(C)nc2-c2ccc(F)cc21 [Example 26, (19R)-3-cyclobutyl-16-fluoro-10,19-dimethyl-5,20-dioxa-4,9,10,11,23-pentaazapentacyclo[19.3.1.0^2,^6.0^8,^12.0^13,^18]pentacosa-1(24),2(6),3,8,11,13,15,1 7,21(25),22-decaen-22-amine] | 50 to 500 | 0.1 to 50 | 0.1 to 50 | 0.1 to 50 | < 50 | < 50 | < 50 | < 50 | > 500 | 0.1 to 50 | A (bin A for very high selectivity, ratio >30-fold) | A (bin A for very high selectivity, ratio >30-fold) | C (bin C for moderate selectivity, ratio ≥1) | A (bin A for very high selectivity, ratio >30-fold)

The next lines start with results.

IC50 (Ba/F3 cells TPM3-TRKA) [nM] | IC50 [1] [nM] | IC50 [2] [nM] | IC50 [3] [nM] | Ki (ALK-wt) [nM] | Ki (ROS1-G2032R) [nM] | Ki (ROS1-wt) [nM] | Ki (ALK L1196M/G1202R) [nM] | Ki (TRKA-wt) [nM] | IC50 [5] [nM] | Compound | TPM3-NTRK1-wt/CD74-ROS1-G2032R selectivity ratio [4] | TPM3-NTRK1-wt/CD74-ROS1-wt selectivity ratio [4] | TPM3-NTRK1-wt/EML4-ALK-L1196M-G1202R selectivity ratio [4] | TPM3-NTRK1-wt/EML4-ALK-wt selectivity ratio [4]
50 to 500 | 0.1 to 50 | 0.1 to 50 | 50 to 500 | < 50 | < 50 | < 50 | < 50 | 50 to 500 | 0.1 to 50 | CCc1noc2c1-c1cnc(N)c(c1)O[C@H](C)c1cc(F)ccc1-c1ccnn1C2 [Example 21, (19R)-3-ethyl-16-fluoro-19-methyl-5,20-dioxa-4,8,9,23-tetraazapentacyclo[19.3.1.0^2,^6.0^8,^12.0^13,^18]pentacosa-1(24),2(6),3,9,11,13,15,17,21 (25),22-decaen-22-amine] | B (bin B for high selectivity, ratio >10-fold) | A (bin A for very high selectivity, ratio >30-fold) | C (bin C for moderate selectivity, ratio ≥1) | A (bin A for very high selectivity, ratio >30-fold)
50 to 500 | 0.1 to 50 | 0.1 to 50 | 50 to 500 | < 50 | < 50 | < 50 | < 50 | 50 to 500 | 0.1 to 50 | CCc1noc2c1-c1cnc(N)c(c1)O[C@H](C)c1cc(F)ccc1-c1nn(C)nc1C2 [Example 22, (19R)-3-ethyl-16-fluoro-10,19-dimethyl-5,20-dioxa-4,9,10,11,23-pentaazapentacyclo[19.3.1.0^2,^6.0^8,^12.0^13,^18]pentacosa-1(24),2(6),3,8,11,13,15,17,21(25),22-decaen-22-amine] | A (bin A for very high selectivity, ratio >30-fold) | A (bin A for very high selectivity, ratio >30-fold) | C (bin C for moderate selectivity, ratio ≥1) | B (bin B for high selectivity, ratio >10-fold)
